The NIST ThermoML archive (doi:10.1016/j.jct.2018.06.007)

Experiments:
[1] = 101 kPa, Liquid; for speed of sound: Frequency=2 MHz, Linear variable-path acoustic interferometer; for mass density: Pycnometric method
[2] = xn = mol fraction of the nth substance listed; conditions: 101 kPa, Liquid; for speed of sound: Frequency=2 MHz, Linear variable-path acoustic interferometer; for mass density: Pycnometric method

CCN(CC)CCO [(diethylamino)ethanol]
[1]
Conditions	mass density [kg/m3]	speed of sound [m/s]
293.15 K	884.37	1366.5
303.15 K	874.93	1327.3
313.15 K	865.62	1285

CCN(CC)CCO [(diethylamino)ethanol] + CCCCO
[2]
Conditions	mass density, 293.15 K [kg/m3]	mass density, 303.15 K [kg/m3]	mass density, 313.15 K [kg/m3]	speed of sound, 293.15 K [m/s]	speed of sound, 303.15 K [m/s]	speed of sound, 313.15 K [m/s]
x1 = 0.0902	820.03	812.47	805.16	1276.3	1239.8	1204.1
x1 = 0.1941	831.16	823.43	815.92	1291.2	1254.8	1218.7
x1 = 0.2938	840.82	832.89	825.11	1304.3	1267.7	1231
x1 = 0.4045	850.42	842.23	834.18	1317.8	1281	1243.5
x1 = 0.5081	858.32	849.91	841.63	1329.2	1292.2	1254
x1 = 0.6088	865.03	856.45	847.98	1339.3	1302.1	1263.3
x1 = 0.7129	871.14	862.42	853.78	1348.6	1311.2	1271.9
x1 = 0.8131	876.29	867.39	858.66	1356.4	1318.7	1278.8
x1 = 0.9037	880.46	871.28	862.4	1362.2	1324	1283.2
x1 = 1	884.37	874.93	865.62	1366.5	1327.3	1285

CCN(CC)CCO [(diethylamino)ethanol] + CCCO
[2]
Conditions	mass density, 293.15 K [kg/m3]	mass density, 303.15 K [kg/m3]	mass density, 313.15 K [kg/m3]	speed of sound, 293.15 K [m/s]	speed of sound, 303.15 K [m/s]	speed of sound, 313.15 K [m/s]
x1 = 0.0937	817.5	809.54	801.82	1247.7	1213.2	1178.9
x1 = 0.1994	830.99	822.96	815.1	1269	1234.4	1199.7
x1 = 0.3005	842.11	833.85	825.77	1287.6	1252.7	1217.3
x1 = 0.4048	851.86	843.48	835.1	1305	1269.5	1233.2
x1 = 0.5072	859.98	851.48	842.85	1320.1	1284.1	1247
x1 = 0.61	866.74	858.08	849.33	1333.3	1296.9	1259.2
x1 = 0.7093	872.27	863.47	854.7	1344	1307.3	1269.4
x1 = 0.801	876.7	867.78	858.95	1352.2	1315.3	1277
x1 = 0.9047	881.06	871.91	862.91	1360.1	1322.3	1282.5
x1 = 1	884.37	874.93	865.62	1366.5	1327.3	1285

CCCCO [butan-1-ol]
[1]
Conditions	mass density [kg/m3]	speed of sound [m/s]
293.15 K	809.53	1261.9
303.15 K	802	1224.7
313.15 K	794.7	1188.8

CCCCO [butan-1-ol] + CCN(CC)CCO
[2], x2 = 0
Conditions	mass density [kg/m3]	speed of sound [m/s]
293.15 K	809.53	1261.9
303.15 K	802	1224.7
313.15 K	794.7	1188.8

CCCO [propan-1-ol]
[1]
Conditions	mass density [kg/m3]	speed of sound [m/s]
293.15 K	803.76	1227
303.15 K	795.82	1192.5
313.15 K	787.88	1157.7

CCCO [propan-1-ol] + CCN(CC)CCO
[2], x2 = 0
Conditions	mass density [kg/m3]	speed of sound [m/s]
293.15 K	803.76	1227
303.15 K	795.82	1192.5
313.15 K	787.88	1157.7
